Measured values taken from US20100168008A1, “METHOD OF USE OF EPIREGULIN PROTEIN AND NUCLEIC ACID ENCODING THE SAME IN INFLAMMATORY CONDITIONS” (PIRAMAL LIFE SCIENCES LIMITED., priority 2006, published 2010).

Assays:
EREG expression in PBMCs = EREG expression in PBMCs after exposure to anti-inflammatory agent, microarray based expression profiling; type: cell-based, Human
Description: Exposure of PBMCs to P979 and Rolipram: Human peripheral blood leukocytes were obtained from normal blood donors by density gradient separation, washed with PBS (phosphate buffered saline), and plated on petri dishes using RPMI medium. Cells were treated for 30 minutes with test compounds at concentrations 0.3, 1.0 and 3.0 μM and with Rolipram at 300 μM as a control as shown in the results section and subsequently activated with bacterial lipopolysaccharide (LPS). After 2 hours, cells were harvested and RNA was prepared.
Preparation of RNA: RNA was prepared by adding 1 ml of trizol reagent (Sigma) subsequently purified using Qiagen-RNAEasy kit, using the instruction from manufacturer's protocol. Quality and quantity of RNA was measured by spectrometry and gel electrophoresis.
Gene expression profiling by microarray: A total of 10 μg of RNA was used to generate cRNA, which is subsequently labeled with Cy3 or Cy5 fluorescent dyes. Control and test cRNAs labeled with Cy3 and Cy5 respectively were pooled and hybridized to DNA chip. […] Following image analysis, image intensity for each of the 23, 290 spots were measured for test and control slides.
Gene expression was expressed as a ratio of the image intensity between test and control slide for a given gene (Table 3). […]

EREG expression in PBMC = EREG expression in PBMC by real time polymerase chain reaction (RT-PCR); type: cell-based, Human; details: 10 μM drug
Description: Exposure of PBMCs to P979 and Rolipram: Human peripheral blood leukocytes were obtained from normal blood donors by density gradient separation, washed with PBS (phosphate buffered saline), and plated on petri dishes using RPMI medium. […] After 2 hours, cells were harvested and RNA was prepared.
Real Time Polymerase Chain Reaction (RT-PCR): To confirm the data obtained from microarray, we performed RT-PCR using specific primers for epiregulin gene.
EREG expression in PBMCs after exposure to anti-inflammatory agent was confirmed by real time polymerase chain reaction (RT-PCR). Microarray based gene expression profiling studied large-scale gene expression. RT PCR focused on the gene/genes of interest and expression analysis was carried out under similar experimental conditions.
The aliquot of RNA samples as used for microarray study was used for RT-PCR analysis. The experiment was carried out using cMaster™ RTplusPCR System kit from Eppendorf using the protocol as provided in the kit. Briefly, cDNA was synthesized using RNA from various sources as shown in the results and subsequently quantified during amplification step by incorporation of Syber green dye into the amplicons.

SMILES: COc1ccc(C2CNC(=O)C2)cc1OC1CCCC1 (stereo not drawn) [Rolipram]
- Ratio intensity (EREG expression, test vs control slide) (EREG expression in PBMCs; 300 μM drug, 30 minutes, then LPS activation, harvested after 2 hours): 1.03
- expression of epiregulin gene up-regulated (in words) (EREG expression in PBMCs; microarray): not
- Log-fold Change (EREG expression) (EREG expression in PBMC): 1.2
